Test results taken from patent publication US8906860B2, “Methods and compositions inhibiting tumor cell proliferation” (The Board of Trustees of the University of Illinois, priority 2011, dated 2014).
Where two headings read alike, the source gives them in different places. Square brackets hold non-standard residues; d marks the D form. Peptide text beside a SMILES is read from it.

Legend:
[1] = test system: p53 null thymic lymphoma cell lines L1 and L2; experiment: In vitro peptide treatment of p53 null thymic lymphoma cells (viability, TUNEL); format: cell-based, mouse; conditions: one day after treatment
[2] = test system: p53 null sarcoma cells; experiment: In vitro peptide treatment of p53 null sarcoma cells (viability, TUNEL); format: cell-based, mouse; conditions: 24 hours
[3] = test system: p53 null sarcoma cells; experiment: Lung colonization of intravenously injected p53 null sarcoma cells in SCID mice; format: in vivo, mouse; conditions: 5 mg/kg intraperitoneal every other day, 10 injections
Protocol: (§1) These experiments were performed to determine if modifying the termini conferred any advantages on these peptides when administered to an animal. Both wild type ARF 26-44 (rrrrrrrrrKFVRSRRPRTASCALAFVN) (SEQ ID NO 10) and mutant ARF 37-44 (rrrrrrrrrSCALAFVN) (SEQ ID NO 21) peptides were synthesized by Genemed Synthesis Inc. (San Antonio, Tex.). The N-terminus of each peptide was fused with nine D-Arg(r) residues. Both wild type and mutant peptides were blocked with amidation on C-terminus and acetylation on N-terminus. For sarcoma cells, mice were treated with 5 mg/kg body weight of peptide every other day for 10 times. For lymphoma cells, mice were treated with 2.5 mg/kg body weight of peptide every other day for 10 times.
To test the therapeutic effect of the ARF-peptide on p53 null tumors in vivo, p53 null lymphoma/sarcoma cells were introduced into the circulation of SCID mice through intravenous injection. ICR SCID mice were obtained from Taconic Farms (Germantown, N.Y.). Both p53 null sarcoma and lymphoma cells were stably transduced before injection with lentivirus carrying a gene conferring luciferase expression. Specifically, cells were stably transduced with pFU-L2G luciferase construct obtained from Sanjiv Sam Gambhir (M. D., Ph.D) of Stanford University as optimized by Dr. Huiping Liu (Liu et al., Proc Natl Acad Sci USA, 107: 18115-18120). This construct enabled expression of both the bioluminescence and green fluorescence protein. eGFP positive cells were sorted by Beckman Coulter MoFlo. 3×10^6 cells were suspended in cold PBS and injected through the tail vein of SCID mice. Live animal imaging was performed using an IVIS Spectrum optical imaging machine (Caliper Life Sciences, Alameda, Calif.). […] Mice were randomized into three groups and were treated with PBS, mutant-peptide or the wild type ARF-peptide for 10 injections every other day by intraperitoneal injection. […] The mice were sacrificed and lung sections were analyzed for tumor colonies. […]

[4] = test system: p53 null thymic lymphoma cells; experiment: Kidney colonization of intravenously injected p53 null thymic lymphoma cells in SCID mice; format: in vivo, mouse; conditions: 2.5 mg/kg intraperitoneal every other day, 10 injections
Protocol: as §1
To test the therapeutic effect of the ARF-peptide on p53 null tumors in vivo, p53 null lymphoma/sarcoma cells were introduced into the circulation of SCID mice through intravenous injection. ICR SCID mice were obtained from Taconic Farms (Germantown, N.Y.). Both p53 null sarcoma and lymphoma cells were stably transduced before injection with lentivirus carrying a gene conferring luciferase expression. Specifically, cells were stably transduced with pFU-L2G luciferase construct obtained from Sanjiv Sam Gambhir (M. D., Ph.D) of Stanford University as optimized by Dr. Huiping Liu (Liu et al., Proc Natl Acad Sci USA, 107: 18115-18120). This construct enabled expression of both the bioluminescence and green fluorescence protein. eGFP positive cells were sorted by Beckman Coulter MoFlo. 3×10^6 cells were suspended in cold PBS and injected through the tail vein of SCID mice. Live animal imaging was performed using an IVIS Spectrum optical imaging machine (Caliper Life Sciences, Alameda, Calif.). […] Mice were randomized into three groups and were treated with PBS, mutant-peptide or the wild type ARF-peptide for 10 injections every other day by intraperitoneal injection. […] The mice were sacrificed and lung sections were analyzed for tumor colonies. […] For the p53 null thymic lymphoma cells, metastatic growth in kidney was observed, consistent with murine thymic lymphoma cells having a tendency to colonize kidney, liver and spleen (Aoudjit et al., 1998, Blood, 91: 623-629).

[5] = test system: S2 cells; conditions: 24 hours
Protocol: TUNEL assay was used to measure apoptosis in S2 cells treated with WT-blocked, mutant-blocked or WT-unblocked (D-Arg)9-p19^ARF 26-44 peptides. (D-Arg)9-p19^ARF 26-44 peptide treatment of cells was performed in 8-well chamber slides for TUNEL staining. On Day 0, 20,000 cells per well were seeded in the 8-well chamber slides. On Day 1, slides were replenished with fresh media containing one of the following concentrations of either WT-blocked, mutant-blocked or WT-unblocked (D-Arg)9-p19^ARF 26-44 peptides: 10, 15, 25, 30, 40 and 70 μM for 24 hours. On Day 2, TUNEL staining was performed following the manufacture's protocol (ApopTag® Fluorescein In Situ Apoptosis Detection Kit from CHEMICON® International, S7110). The percent of apoptosis of S2 cells (±SD) was measured by counting the number of TUNEL-positive cells (green fluorescence) per 1,000 nuclei as visualized by DAPI (blue fluorescence) counterstaining. The experiment was repeated in a second experiment using the same protocol. Statistical analysis and EC50 calculation were performed using GraphPad Prism software.

CC(=O)N[C@H](CCCNC(=N)N)C(=O)N[C@H](CCCNC(=N)N)C(=O)N[C@H](CCCNC(=N)N)C(=O)N[C@H](CCCNC(=N)N)C(=O)N[C@H](CCCNC(=N)N)C(=O)N[C@H](CCCNC(=N)N)C(=O)N[C@H](CCCNC(=N)N)C(=O)N[C@H](CCCNC(=N)N)C(=O)N[C@H](CCCNC(=N)N)C(=O)N[C@@H](CCCCN)C(=O)N[C@@H](Cc1ccccc1)C(=O)N[C@H](C(=O)N[C@@H](CCCNC(=N)N)C(=O)N[C@@H](CO)C(=O)N[C@@H](CCCNC(=N)N)C(=O)N[C@@H](CCCNC(=N)N)C(=O)N1CCC[C@H]1C(=O)N[C@@H](CCCNC(=N)N)C(=O)N[C@H](C(=O)N[C@@H](C)C(=O)N[C@@H](CO)C(=O)N[C@@H](CS)C(=O)N[C@@H](C)C(=O)N[C@@H](CC(C)C)C(=O)N[C@@H](C)C(=O)N[C@@H](Cc1ccccc1)C(=O)N[C@H](C(=O)N[C@@H](CC(N)=O)C(N)=O)C(C)C)[C@@H](C)O)C(C)C [WT Blocked, rrrrrrrrrKFVRSRRPRTASCALAFVN] (Ac-[dR][dR][dR][dR][dR][dR][dR][dR][dR]KFVRSRRPRTASCALAFVN-NH2)
Apoptosis of cells after peptide treatment [1]: underwent apoptosis
Number of viable cells versus mutant-peptide or PBS [1]: much less
Viability and apoptosis (TUNEL) after peptide treatment [2]: A similar effect was observed in p53 null sarcoma cells
Number of lung tumor colonies larger than 100 μm×100 μm [3]: A reduced number of tumor colonies
Tumors on the surface of the lungs [3]: fewer tumors were observed on the surface of the lungs
Luciferase signal from mice ([3]; 20 days after inoculation): significantly reduced
Kidney tumor mass at sacrifice [4]: retained their original size and structure, with only a small white mass beginning to build up on the surface of the kidney
Luciferase signal from colonized lymphoma cells ([4]; around 20 days after inoculation): emitted very little fluorescence
% of TUNEL Positive S2 Cells, Mean ([5]; Experiment 1, 10 μM/Well): 0.46%
% of TUNEL Positive S2 Cells, Mean ([5]; Experiment 1, 25 μM/Well): 20.27%
% of TUNEL Positive S2 Cells, Mean ([5]; Experiment 1, 30 μM/Well): 57.78%
% of TUNEL Positive S2 Cells, Mean ([5]; Experiment 1, 40 μM/Well): 98.48%
% of TUNEL Positive S2 Cells, Mean ([5]; Experiment 2, 10 μM/Well): 12.91%
% of TUNEL Positive S2 Cells, Mean ([5]; Experiment 2, 15 μM/Well): 13.6%
% of TUNEL Positive S2 Cells, Mean ([5]; Experiment 2, 25 μM/Well): 39.48%
% of TUNEL Positive S2 Cells, Mean ([5]; Experiment 2, 30 μM/Well): 47.52%
% of TUNEL Positive S2 Cells, Mean ([5]; Experiment 2, 40 μM/Well): 70.17%
Apoptosis induction compared between peptides (TUNEL) ([5]; S2 cells, 10-70 μM): induced significantly higher apoptosis compared to WT-unblocked and mutant-blocked
